Measured values: US11000511B2, “Chemical compounds as antibiotics” (priority 2017, dated 2021)

Assays:
[1] = molecular target: T1, purified LasB protein from P. aeruginosa (Pseudomonas aeruginosa, UniProt P14756); assay: Fluorometric assay to determine Ki (Assay 1); assay type: biochemical; details: Ki (μM) Assay 1, purified LasB, substrate Abz-Ala-Gly-Leu-Ala-p-Nitro-Benzyl-Amide 250 μM, Ki calculated from IC50; inhibitor 0.006 to 200 μM
T1 construct: purchased Merck or Charles River Laboratories
Experimental: (§1) Experiments were therefore conducted (1) to measure the potency of inhibition of compounds of the invention against purified Pseudomonas aeruginosa LasB enzyme and also experiments were conducted (2) to measure the ability of compounds of the invention to inhibit LasB-catalysed elastin degradation. The first assay uses a commercial fluorescent synthetic peptide and purified LasB enzyme. The LasB hydrolysis kinetics are measured allowing the determination of the IC50 and Ki of the inhibitors; the second is a more physiological assay using dialysed Pseudomonas aeruginosa supernatant as source of enzyme, plus its natural substrate Elastin. It is an “end point assay” that determines the percentage of LasB inhibition by each compound for one particular time point and inhibitor concentration. Technical details are described below:
This assay uses commercially available substrate (Abz-Ala-Gly-Leu-Ala-p-Nitro-Benzyl-Amide (Ex: 340 nm, Em: 415 nm) from Peptide International) and purified LasB protein from P. aeruginosa (provided by Merck or Charles River Laboratories). It is performed to determine LasB elastase activity and assess compound inhibition in 96-well plate format. Some compounds of Formula (I) were assessed using the method of Assay 1 (described below). Other compounds of Formula (I) were assessed using the alternative but equivalent method of Assay 2 (described below).
Method: 10 to 140 ng/ml purified LasB is incubated with 250 μM Abz-Ala-Gly-Leu-Ala-p-Nitro-Benzyl-Amide in 50 mM Tris-HCl pH 7.4, 2.5 mM CaCl2), 0.01% of Triton X100 at 37° C. LasB activity (corresponding to fluorescence emission induced by substrate hydrolysis) is measured over 30 min at 37° C. with a fluorescence plate reader such as the Perkin Elmer Envision or similar. Different range of inhibitor concentrations are routinely assessed depending of inhibitor potency from 0.006 to 200 μM (Assay 1; 2-fold dilutions series) or from 0.0016 to 200 μM (Assay 2; 2-fold dilutions series) in order to determine IC50.
The equation used to calculate the Ki from IC50 is: Ki=IC50/(1+([S]/Km)) where [S]=250 μM and Km=214 μM.

[2] = molecular target: T2, LasB elastase activity in dialysed supernatant from P. aeruginosa strain PA01 (Pseudomonas aeruginosa, UniProt P14756); assay: Elastin Congo Red assay to determine % inhibition (Assay 1); assay type: biochemical; details: for inhibition at 50 µM: read-out: Elastin hydrolysis % inhibition @ 50/25 μM inhibitor concentration Assay 1
T2 construct: uses as source of enzyme dialysed supernatant from P. aeruginosa; endogenous in cells; host or cells: P. aeruginosa strain PA01 culture supernatant, filtered and dialysed
Experimental: as §1
The Elastin assay uses as source of enzyme dialysed supernatant from P. aeruginosa and the elastin congo red as substrate. The natural LasB substrate, elastin, is complexed with the congo red dye (Elastin Congo Red, ECR). The elastolysis activity from the culture supernatant will degrade elastin and release the congo red dye into the supernatant. This red dye release can be measured with a spectrophotometer. Some compounds of Formula (I) were assessed using the method of Assay 1 (described below). Other compounds of Formula (I) were assessed using the alternative but equivalent method of Assay 2 (described below).
Method (Assay 1): To determine LasB elastase activity and assess compound inhibition, an overnight culture of P. aeruginosa strain PA01 is diluted thousand-fold in LB medium. This diluted solution is incubated during 19 hours in a shaking incubator. Culture supernatants are recovered by centrifugation and filtrated through a […] filter. These supernatants are dialysed (filtration molecules <20 kDa) into a 50 mM Tris pH 7.4, 2.5 mM CaCl2 solution at 4° C. under agitation for 24 hours. Supernatant dialysed is then mixed volume/volume with the ECR suspension (20 mg/mL of ECR in 100 mM Tris buffer supplemented with 1 mM CaCl2) supplemented with TritonX 100 (final concentration of 0.01%) in presence of different concentrations of compound (routinely 50 and 25 μM). The mixed reaction is then incubated for 24 hours in a 37° shaking incubator. As a negative control, the mixed supernatant is replaced by Tris solution (50 mM Tris pH 7.4, 2.5 mM CaCl2). The reaction supernatant is recovered by centrifugation and the release of congo red is measured by its absorbance at OD520. Percentage inhibition is determined using the following equation: (OD520 value of DMSO SN−OD520 value of LB)−(OD520 value of Compound SN−OD520 value of LB)/(OD520 value of DMSO SN−OD520 value of LB)×100.

T2 sequence (P14756 198-498): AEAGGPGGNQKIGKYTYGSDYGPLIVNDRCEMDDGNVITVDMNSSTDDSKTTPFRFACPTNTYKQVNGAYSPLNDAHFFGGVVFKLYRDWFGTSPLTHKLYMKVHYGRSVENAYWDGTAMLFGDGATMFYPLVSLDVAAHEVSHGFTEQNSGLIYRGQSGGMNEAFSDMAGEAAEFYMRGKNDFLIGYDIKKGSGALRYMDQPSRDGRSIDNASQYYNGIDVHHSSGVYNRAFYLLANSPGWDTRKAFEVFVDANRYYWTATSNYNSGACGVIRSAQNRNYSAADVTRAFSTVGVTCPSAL
T1 sequence (P14756 198-498): as above

Compound	Ki [1] [µM]	inhibition at 50 µM [2] [%]	Elastin hydrolysis % inhibition @ 50/25 μM inhibitor concentration Assay 1 ([2]; 50 μM inhibitor concentration, elastin congo red, 24 hours, OD520)
NC1CC(Oc2ccc3nc(CNC(=O)C4(CC(=O)O)Cc5ccccc5C4)sc3c2)C1 (mixture of isomers) [Example 78, 2-[2-[[6-(3-aminocyclobutoxy)-1,3-benzothiazol-2-yl]methylcarbamoyl]indan-2-yl]acetic acid]	0.3 to 2	–	–
CC(NC(=O)C1(CC(=O)O)Cc2ccccc2C1)c1cc2ccccc2o1 (single isomer, unassigned) [Example 58, 2-[2-[[(1R*)-1-(benzofuran-2-yl)ethyl]carbamoyl]indan-2-yl]acetic acid]	2 to 10	30 to 60	–
CC(NC(=O)C1(CC(=O)O)Cc2ccccc2C1)c1cc2ccccc2o1 (single isomer, unassigned) [Example 59, 2-[2-[[(1S*)-1-(benzofuran-2-yl)ethyl]carbamoyl]indan-2-yl]acetic acid]	0.3 to 2	–	B (30 to 60% inhibition)
O=C(O)CC1(C(=O)NCc2nc3cc(Cl)ccc3[nH]2)Cc2ccccc2C1 [Example 1, 2-(2-{[(5-Chloro-1H-1,3-benzodiazol-2-yl)methyl]carbamoyl}-2,3-dihydro-1H-inden-2-yl)acetic acid]	0.3 to 2	30 to 60	–
O=C(O)CC1(C(=O)NCc2cc3ccccc3cn2)Cc2ccccc2C1 [Example 2, 2-[2-(3-isoquinolylmethylcarbamoyl)indan-2-yl]acetic acid]	0.3 to 2	30 to 60	–
Cn1cc(CNC(=O)C2(CC(=O)O)Cc3ccccc3C2)cn1 [Example 3, 2-[2-[(1-methylpyrazol-4-yl)methylcarbamoyl]-indan-2-yl]acetic acid]	2 to 10	30 to 60	–
O=C(O)CC1(C(=O)NCc2cc3ccccc3o2)Cc2ccccc2C1 [Example 5, 2-(2-{[(1-Benzofuran-2-yl)methyl]carbamoyl}-2,3-dihydro-1H-inden-2-yl)acetic acid]	0.3 to 2	30 to 60	–
Cc1ccc2oc(CNC(=O)C3(CC(=O)O)Cc4ccccc4C3)cc2c1 [Example 6, 2-(2-{[(5-methyl-1-benzofuran-2-yl)methyl]carbamoyl}-2,3-dihydro-1H-inden-2-yl)acetic acid]	< 0.3	> 60	–
Cc1ccc2c(c1)CC(CNC(=O)C1(CC(=O)O)Cc3ccccc3C1)O2 (stereo not drawn) [Example 7, 2-[2-[(5-methyl-2,3-dihydrobenzofuran-2-yl)methylcarbamoyl]indan-2-yl]acetic acid]	< 0.3	> 60	–
O=C(O)CC1(C(=O)NC2CCN(c3cccc(Cl)c3)C2)Cc2ccccc2C1 (stereo not drawn) [Example 8, 2-[2-[[1-(3-chlorophenyl)pyrrolidin-3-yl]carbamoyl]indan-2-yl]acctic acid]	< 0.3	> 60	–
Cn1c(CNC(=O)C2(CC(=O)O)Cc3ccccc3C2)cc2ccccc21 [Example 9, 2-[2-[(1-methylindol-2-yl)methylcarbamoyl]indan-2-yl]acetic acid]	< 0.3	> 60	–
O=C(O)CC1(C(=O)NCc2nc3ccccc3s2)Cc2ccccc2C1 [Example 10, 2-(2-{[(1,3-Benzothiazol-2-yl)methyl]carbamoyl}-2,3-dihydro-1H-inden-2-yl)acetic acid]	< 0.3	> 60	–
Cc1c(CNC(=O)C2(CC(=O)O)Cc3ccccc3C2)oc2ccccc12 [Example 11, 2-(2-{[2-(3-methyl-1-benzofuran-2-yl)methyl]carbamoyl}-2,3-dihydro-1H-inden-2-yl)acetic acid]	0.3 to 2	30 to 60	–
O=C(O)CC1(C(=O)NCCc2nc3ccccc3[nH]2)Cc2ccccc2C1 [Example 12, 2-[2-[2-(1H-benzimidazol-2-yl)ethylcarbamoyl]indan-2-yl]acetic acid]	2 to 10	15 to 30	–
O=C(O)CC1(C(=O)NCCc2nc3ccccc3o2)Cc2ccccc2C1 [Example 31, 2-[2-[2-(1,3-benzoxazol-2-yl)ethylcarbamoyl]indan-2-yl]acetic acid]	2 to 10	–	–
C[N+](C)(C)CCNc1ccc2sc(CNC(=O)C3(CC(=O)[O-])Cc4ccccc4C3)nc2c1 [Example 77, 2-[2-[[5-[2-(trimethylammonio)ethylamino]-1,3-benzothiazol-2-yl]methylcarbamoyl]indan-2-yl]acetate]	0.3 to 2	–	–
CN(C)C1CC(Oc2ccc3nc(CNC(=O)C4(CC(=O)O)Cc5ccccc5C4)sc3c2)C1 (stereo not drawn) [Example 79, 2-[2-[[6-[3-(dimethylamino)cyclobutoxy]-1,3-benzothiazol-2-yl]methylcarbamoyl]indan-2-yl]acetic acid]	0.3 to 2	–	–
CN(C)Cc1ccc2nc(CNC(=O)C3(CC(=O)O)Cc4ccccc4C3)sc2c1 [Example 81, 2-[2-[[6-[(dimethylamino)methyl]-1,3-benzothiazol-2-yl]methylcarbamoyl]indan-2-yl]acetic acid]	2 to 10	–	–
C[N+](C)(C)Cc1ccc2nc(CNC(=O)C3(CC(=O)[O-])Cc4ccccc4C3)sc2c1 [Example 82, 2-[2-[[6-[(trimethylammonio)methyl]-1,3-benzothiazol-2-yl]methylcarbamoyl]indan-2-yl]acetate]	2 to 10	–	–
NCCc1ccc2sc(CNC(=O)C3(CC(=O)O)Cc4ccccc4C3)nc2c1 [Example 83, 2-[2-[[5-(2-aminoethyl)-1,3-benzothiazol-2-yl]methylcarbamoyl]indan-2-yl]acetic acid]	0.3 to 2	–	–
CN(C)Cc1ccc2sc(CNC(=O)C3(CC(=O)O)Cc4ccccc4C3)nc2c1 [Example 84, 2-[2-[[5-[(dimethylamino)methyl]-1,3-benzothiazol-2-yl]methylcarbamoyl]indan-2-yl]acetic acid]	0.3 to 2	–	–
C[N+](C)(C)Cc1ccc2sc(CNC(=O)C3(CC(=O)[O-])Cc4ccccc4C3)nc2c1 [Example 85, 2-[2-[[5-[(trimethylammonio)methyl]-1,3-benzothiazol-2-yl]methylcarbamoyl]indan-2-yl]acetate]	0.3 to 2	–	–
CN(C)CCc1ccc2sc(CNC(=O)C3(CC(=O)O)Cc4ccccc4C3)nc2c1 [Example 97, 2-[2-[[5-[2-(dimethylamino)ethyl]-1,3-benzothiazol-2-yl]methylcarbamoyl]indan-2-yl]acetic acid]	0.3 to 2	–	–
C[N+](C)(C)CCc1ccc2sc(CNC(=O)C3(CC(=O)[O-])Cc4ccccc4C3)nc2c1 [Example 98, 2-[2-[[5-[2-(trimethylammonio)ethyl]-1,3-benzothiazol-2-yl]methylcarbamoyl]indan-2-yl]acetate]	0.3 to 2	–	–
CC(C)(N)c1nnc([C@H](Cc2c[nH]c3ccccc23)NC(=O)C2(CC(=O)O)Cc3ccccc3C2)o1 [Example 119, (S)-2-(2-((1-(5-(2-aminopropan-2-yl)-1,3,4-oxadiazol-2-yl)-2-(1H-indol-3-yl)ethyl)carbamoyl)-2,3-dihydro-1H-inden-2-yl)acetic acid]	0.3 to 2	–	–
O=C(O)CC1(C(=O)NCc2nc3ccccc3s2)Cc2cc(Cl)c(Cl)cc2C1 [Example 121, 2-(2-((benzo[d]thiazol-2-ylmethyl)carbamoyl)-5,6-dichloro-2,3-dihydro-1H-inden-2-yl)acetic acid]	0.3 to 2	–	–
